Measurements reported in patent US20170224679A1, “Use of CXCR2 Antagonists For The Prevention and/or Treatment of Chemotherapy Induced Peripheral Neuropathy (CIPN)” (GlaxoSmithKline Intellectual Property Development Limited, priority 2014, published 2017).

Experiments:
Caco-2 cell line = assay: Colorectal cancer cell line proliferation assay, Caco-2; type: cell-based; conditions: Caco-2, compound alone 8.5 μM, non-significant
Protocol: Data Analysis: pIC50 values were calculated by software GraphPad Prism 5 using sigmoidal concentration-response (variable slope). All data were presented as the mean±standard error of the mean determined from three independent experiments.

Sprague-Dawley rats = assay: CXCR2 antagonist effect on repeat dosing oxaliplatin induced sensory injury rat; conditions: oxaliplatin-treated rats, 20 mg/kg p.o. b.i.d. 4 weeks
Protocol: Male Sprague-Dawley rats (109-167 g, ˜5weeks old) were housed in cages in groups of three in a controlled environment of constant temperature and moisture (temperature: 25±3° C., light: dark cycle of 12:12 hours) with food (25 g/rat/day of LabDiet 5053) and water available ad libitum.
MC (Sigma Cat #423238) was made up in water at 1% (w/v) (1 g per 100 mL water) and left on a stirrer until completely dissolved. The formulation was prepared every 6-8 days in 400-700 mL each time and stored at 4° C. protected from light. The dosing volume used was 10 mL/kg to give a 20 mg/kg p.o. dose. Vehicle treated animals were dosed b.i.d. with 1% MC w/v at 10 mL/kg p.o.
A fresh solution was prepared before every injection. Control vehicle animals were treated with 5% w/v Gluclose at 5ml/kg. Glucose (Sigma Aldrich Cat #G7021) was made up in milli-Q water at 5% (w/v) (5 g per 100 mL water) and left on a stirrer until completely dissolved.
Body weight tracking: The bodyweights of rats were measured twice a week for 4 weeks on Days 1, 3, 9, 11, 16, 18, 23, and 25. […]
Rats were anesthetized with chloral hydrate (350 mg/kg, 3.5 mL/kg, i.p.). […] The right sciatic nerve was carefully identified and conduction velocity was measured by recording action potentials from an electrode placed between the second and third digits as described by Jamieson et al., Br. J. Cancer, 88(12):1942-7 (2003), and electrically stimulating the nerve (5V, 0.5 s, single-wave pulses) via a platinum wire electrode at the sciatic notch and ankle. The length between the sciatic notch and ankle was measured.
The nerve conduction velocity was calculated as the length between sciatic notch and ankle divided by the difference between the time latencies at the stimulation sites [latency (sciatic notch)−latency (ankle)].
A 1 cm segment of the left sciatic nerve (distal end) was located and carefully dissected out. […] The ratio of inner area over entire area of nerve fibers of sciatic nerves was then calculated as an indicator of thickness of myelin sheath of nerves.

CXCR2 receptor [1] = molecular target: T1, CXCR2 receptor (Homo sapiens, UniProt P25025); assay: Calcium mobilization assay (FLIPR, IL-8 induced); type: cell-based; design: expressed in transfected cells; host or cells: CHO-K1 cells
T1 sequence (P25025 1-360): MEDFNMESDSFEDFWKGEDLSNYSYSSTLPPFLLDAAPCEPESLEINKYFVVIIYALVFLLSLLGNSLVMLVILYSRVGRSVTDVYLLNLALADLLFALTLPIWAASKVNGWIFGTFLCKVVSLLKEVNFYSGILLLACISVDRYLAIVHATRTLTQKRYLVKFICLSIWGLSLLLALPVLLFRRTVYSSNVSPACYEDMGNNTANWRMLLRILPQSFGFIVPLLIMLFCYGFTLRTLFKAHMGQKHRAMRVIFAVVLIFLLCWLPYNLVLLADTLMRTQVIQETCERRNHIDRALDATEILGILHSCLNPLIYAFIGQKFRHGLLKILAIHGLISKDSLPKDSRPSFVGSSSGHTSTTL
Protocol: CHO-K1 cells, stably expressing CXCR2 and Gαl6, were grown to 80% confluency in DMEM/F12 (HAM's) 1:1, w/10% FCS (heat inactivated), w/2 mM L-glutamine, w/0.4 mg/ml G418 while maintained at 37° C. in a 5% CO2 incubator. Twenty four hours prior to conducting the assay, the cells were harvested and plated (40,000 cells per well) in a 96 well, black wall, clear bottom plate (Packard View) and returned to the CO2 incubator. On the day of the assay, compounds were serially diluted in 100% DMSO to 300× the desired assay concentration. Growth media was aspirated from the cells and replaced with 100 μL of load media (EMEM with Earl's salts w/LGlutamine, 0.1% BSA, (Bovunlinar Cohen Fraction V from Seriologicals Corp.), 4 uM Fluo-4-acetoxymethyl ester fluorescent indicator dye (Fluo-4 AM, from Molecular Probes) and 2.5 mM probenecid) and incubated for 1 hour at 37° C. in a CO2 incubator. Load media was aspirated and replaced with 100 μL of EMEM with Earl's salts w/L-Glutamine, 0.1% gelatin and 2.5 mM probenecid and incubated for an additional 10 min. Serially diluted compound (3 μL) in DMSO at 300× was transferred to a 96 well plate containing 297 micro liters of KRH (120 mM NaCl, 4.6 mM KCl, 1.03 mM KH2PO4, 25 mM NaHCO3, 1.0 mM CaCl2, 1.1 mM MgCl2, 11 mM glucose, 20 mM HEPES (pH 7.4)) w/2.5 mM probenecid and 0.1% gelatin (compound now at 3×). […]

HCT116 cell line = assay: Colorectal cancer cell line proliferation assay, HCT116; type: cell-based; conditions: HCT116, compound alone 8.5 μM, non-significant
Protocol: Cell proliferation assay: Cells were seeded in 96-well plates (Costar) at different cell densities: HCT116, 500 cells per well; Caco-2, 1000 cells per well. Total volume of the medium was 90 μl per well. Cells were incubated for 24 hours at 37° C. and 5% CO2 incubator. […] The final concentration of the Compound of Formula (A) was 8.5 μM. […] The cell proliferation rate was measured by adding 100 μl of CellTiter-Glo™ (Promega) according to the manufacturer's instructions. After 10 minutes of incubation, the cell lysates were transferred into OptiPlate-384 well, the luminescence was recorded by BioTek Synergy™ 4 Hybrid Microplate Reader with Gen5 software. All data points were generated in five replicates. Three independent experiments were performed. […] All data were presented as the mean±standard error of the mean determined from three independent experiments.

CXCR2 receptor [2] = molecular target: T1, CXCR2 receptor; assay: Human whole blood assay version ii) (CD11b, GROα stimulated); type: cell-based; design: Assay d) measures the cellular functional activity to the native expressed human CXCR2 in whole blood; endogenous in cells; host or cells: human whole blood (neutrophils); conditions: 33 nM GROα, neutrophil CD11b, read-out: pIC50 against the CXCR2 receptor (converted)
Protocol: Blood was withdrawn by venipuncture from consented adults and poured into a Sterilin tube containing an anti-coagulant Heparin (10 μL/mL of blood). All the test compounds were dissolved in DMSO to 4 mM and serial diluted across the plate, 1 in 3 to provide 10 point dose response curves. The compounds were then diluted 100 fold in -PBS [Phosphate buffered saline (without Calcium Chloride and Magnesium Chloride)] after which, 1 μL was dispensed in 96 U bottom Costar plates using an FX. This was done to reduce the final DMSO concentration to 0.25% and for compounds to be screened at 10 uM final assay concentration, after addition of blood.
10 μL of blood was transferred to the compound plate using a multi-channel pipette, gently tapped and incubated for 15 minutes, at 37° C. After 15 minutes, the stimulant GROα was diluted to 100 nM in 0.1% BSA (Albumin Bovine Serum)-PBS and 5 μL is dispensed across the whole plate for a final concentration of 33 nM. The plate was gently tapped and incubated further for 15 minutes at 37° C. […]
Samples were run on a Becton and Dickinson (BD)-Acurri C6 Flow Cytometer using a HyperCyt sampling apparatus (IntelliCyt) with a flow rate 2 μL/sec. CD11 b upregulation is monitored in neutrophils and identified using a combination of both side scatter and CD16 expression.

CXCR2 receptor [3] = molecular target: T1, CXCR2 receptor; assay: GPCR Arrestin Assay (DiscoveRX PathHunter), CXCR2; type: cell-based; design: host or cells: PathHunter CHO cell lines
Protocol: Certain compounds of the invention were also tested by DiscoveRX Corporation (42501 Albrae Street, Fremont, Calif. 94538, United States) in their GPCR Arrestin Assay to determine their activity against a panel of receptors including CXCR2 and CXCR1. PathHunter CHO cell lines were expanded from freezer stocks according to standard procedures. Cells were seeded in a total volume of 20 μL into white walled, 384-well microplates and incubated at 37° C. for the appropriate time prior to testing. The cells were pre-incubated with antagonist followed by agonist challenge at the EC80 concentration. Intermediate dilution of sample stocks was performed to generate 5× sample in assay buffer. 5 μL of 5× sample was added to cells and incubated at 37° C. or room temperature for 30 minutes. […] Assay signal was generated through a single addition of 12.5 or 15 μL (50% v/v) of PathHunter Detection reagent cocktail, followed by one hour incubation at room temperature. Microplates were read following signal generation with a PerkinElmer Envision™ instrument for chemiluminescent signal detection. Compound activity was analyzed using CBIS data analysis suite (ChemInnovation, Calif.).

| Compound | decrease of basal proliferation (Caco-2 cell line) | sciatic nerve conduction velocity between sciatic notch and ankle (Sprague-Dawley rats; Day 29-31, mean±SEM) | ratio of inner area over entire area of the nerve fibers (myelin sheath thickness) (Sprague-Dawley rats; left sciatic nerve, mean±SEM) | Kb (CXCR2 receptor [1]) | decrease of basal proliferation (HCT116 cell line) | IC50 (CXCR2 receptor [2]) | selectivity for CXCR2 over CXCR1 (CXCR2 receptor [3]; GPCR Arrestin Assay e)) | IC50 (CXCR2 receptor [3]; PathHunter CHO cells, agonist at EC80, read-out: pIC50 against the CXCR2 receptor (converted)) |
| --- | --- | --- | --- | --- | --- | --- | --- | --- |
| O=C(Nc1ccc(Cl)c(S(=O)(=O)N2CCNCC2)c1O)Nc1cccc(F)c1Cl [Compound of Formula (A), 1-(4-chloro-2-hydroxy-3-(piperazin-1-ylsulfonyl)phenyl)-3-(2-chloro-3-fluorophenyl)urea] | 2.7±2.1% | 40.83±1.45 m/s | 0.17±0.01 | 3.98 nM | 8.9±0.7% | – | – | – |
| CN1CCC(C)(S(=O)(=O)c2c(Cl)ccc(NC(=O)Nc3cccc(F)c3Cl)c2O)CC1 [Compound of Formula (D), 1-(4-chloro-3-((1,4-dimethylpiperidin-4-yl)sulfonyl)-2-hydroxyphenyl)-3-(2-chloro-3-fluorophenyl)urea] | – | – | – | – | – | 1580 nM | 29 fold | 100 nM |
